{"source": "patent US6303591A", "about": "“21-hydroxy-6,19-oxidoprogesterone (21OH-6OP) and its use as medicament for treating excess of glucocorticoids” (Applied Research Systems ARS Holding NV, priority 1997, dated 2001)", "key": {"MR": {"system": "MR", "details": "background; cited from earlier work"}, "GR": {"system": "GR", "details": "background; cited from earlier work"}, "[1]": {"target": "T1, uterus PR (progesterone receptor) (Rattus norvegicus, UniProt Q63449)", "T1 sequence (Q63449 1-923)": "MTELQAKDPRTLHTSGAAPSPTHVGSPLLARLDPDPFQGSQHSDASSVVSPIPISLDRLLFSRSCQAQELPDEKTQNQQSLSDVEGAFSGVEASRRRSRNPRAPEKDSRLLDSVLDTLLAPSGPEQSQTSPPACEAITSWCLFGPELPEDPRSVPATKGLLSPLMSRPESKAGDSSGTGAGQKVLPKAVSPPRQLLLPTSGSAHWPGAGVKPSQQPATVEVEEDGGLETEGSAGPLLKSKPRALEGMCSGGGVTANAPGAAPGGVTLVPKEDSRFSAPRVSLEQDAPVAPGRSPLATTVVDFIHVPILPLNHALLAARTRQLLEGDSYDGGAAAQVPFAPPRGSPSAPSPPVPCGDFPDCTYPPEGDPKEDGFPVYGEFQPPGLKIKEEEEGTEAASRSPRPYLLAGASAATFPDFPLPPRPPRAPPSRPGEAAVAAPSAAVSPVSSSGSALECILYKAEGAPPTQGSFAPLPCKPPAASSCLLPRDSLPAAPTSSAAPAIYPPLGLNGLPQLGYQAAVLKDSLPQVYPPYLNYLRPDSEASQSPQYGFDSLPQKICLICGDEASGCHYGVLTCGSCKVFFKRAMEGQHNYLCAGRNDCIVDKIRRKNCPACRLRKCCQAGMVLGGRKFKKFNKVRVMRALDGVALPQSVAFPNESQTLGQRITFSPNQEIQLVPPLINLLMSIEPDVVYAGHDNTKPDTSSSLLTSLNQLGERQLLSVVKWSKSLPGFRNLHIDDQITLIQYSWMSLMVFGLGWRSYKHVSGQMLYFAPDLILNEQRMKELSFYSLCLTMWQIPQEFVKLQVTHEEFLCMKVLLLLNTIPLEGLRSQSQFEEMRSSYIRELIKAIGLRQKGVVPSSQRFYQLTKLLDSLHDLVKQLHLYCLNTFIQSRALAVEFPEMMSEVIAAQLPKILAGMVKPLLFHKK", "test": "(^3 H)-P4 binding to uterus cytosols (PR)", "details": "uterus cytosol, 12 h at 0° C., 1 μM cortisol", "description": "Binding Assay: Adrenalectomized male Sprague-Dawley rats were bled to death by heart puncture. Cold 0.9% NaCI was injected profusely through the aorta until organs were completely blanched. Thymuses were used as a source of GR and kidneys as a source of MR. Homogenization and incubation conditions were performed as previously described, (14) and (15), respectively. Briefly, homogenates performed in cold TEGM buffer at pH 7.4 (0.1 M Tris-HCl, 10 mM EDTA, 10 mM α-mercaptoethanol, 20 mM Na2 MoO4, 25% glycerol, 0.1 mM PMSF, 2.0 TIU/ml aprotinin and 1 mg% Leupeptin) were centrifuged at 37,000 rev. for 30 min at 0° C. Supernatants from this centrifugation are referred to as \"cytosol\". […] (^3 H)-P4 binding to uterus PR was assayed on immature female rats according to Jordan et al (16).\nRelative binding affinity (RBA) for partially purified CBG was determined by steroid competition for (^3 H)-B binding as described previously (14)."}}}
{"smiles": "CC(=O)[C@H]1CC[C@H]2[C@@H]3CCC4=CC(=O)CC[C@]4(C)[C@H]3CC[C@]12C", "note": "[P4, progesterone]", "values": [{"measurement": "cross-reaction with MR", "setting": "MR", "result": "exhibits cross-reaction with both MR and GR"}, {"measurement": "cross-reaction with GR", "setting": "GR", "result": "exhibits cross-reaction with both MR and GR"}, {"measurement": "displacement of (^3 H)-P4 from uterus receptors / cross-reaction with PR", "setting": "[1]", "result": "able to displace the tracer efficiently"}]}
